Tests used:
[1] = tested on: retinal neovascularization; assay: Oxygen-induced ischemic retinopathy in mice, lectin staining of retinal endothelial cells with image analysis; assay type: in vivo, C57/BL6J mice
Experimental: Ophthalmol. Vis. […] Vehicle (1% DMSO) or vehicle containing various concentrations of the drug (volume=10 μl per gram body weight) is placed in the stomach by gavage.
Some slides are counterstained with hematoxyln and all were mounted with Cytoseal.

[2] = tested on: endothelial cells of mature vessels; assay: Effect on mature retinal vessels of adult mice, lectin staining with image analysis; assay type: in vivo, Adult C57BL6J mice; details: 600 mg/kg by gavage once a day, 5 days
Experimental: After 5 days of treatment, the mice are sacrificed, eyes are rapidly removed and frozen in optimum cutting temperature embedding compound (OCT; Miles Diagnostics, Elkhart, Ind.) or fixed in 10% phosphate-buffered formalin and embedded in paraffin. Adult C57BL6J mice are also treated by gavage with the drug or vehicle and after 5 days, they are sacrificed and their eyes are processed for frozen or paraffin sections.

[3] = tested on: retinal vascular development; assay: Retinal vascular development in neonatal mice, fluorescein-dextran perfused retinal flat mounts; assay type: in vivo, newborn C57/BL6J mice; details: daily subcutaneous 100 mg/kg
Experimental: Litters of newborn C57/BL6J mice (neonatal mice) are divided into treatment and control groups which received daily subcutaneous injections of 100 mg/kg of the drug or vehicle, respectively. At 7 or 10 days of age, the mice are anesthetized with ether, and perfused with 1 ml of phosphate-buffered saline containing 50 mg/ml of fluorescein-labeled dextran (2×10^6 average mw, Sigma, St. Louis, Mo.) as described by Tobe et al., Evolution of Neovascularization in Mice with Overexpression of VEGF in Photoreceptors, Invest. Ophthalmol. Vis. Sci. 39, 180-188 (1998). The eyes are removed and fixed for 1 hour in 10% phosphate-buffered formalin. The cornea and lens are removed and the entire retina is carefully dissected from the eyecup. Radially cuts are made from the edge of the retina to the equator in all 4 quadrants, and the retina is flat-mounted in Aquamount with photoreceptors facing upward. […] Image-Pro™ Plus is used to measure the distance from the center of the optic nerve to the leading front of developing retinal vessels in each quadrant and the mean is used as a single experimental value.

[4] = tested on: choroidal neovascularization; assay: Laser-induced choroidal neovascularization in mice, lectin staining with integrated area measurement; assay type: in vivo, C57BL/6J mice; details: 400 mg/kg/day orally by gavage
Experimental: C57BL/6J mice are treated in accordance with the Association for Research in Vision and Ophthalmology resolution for the treatment of animals. […] J Path, in press. Briefly, 4 to 5 week old male C57BL/6J mice are anesthetized with ketamine hydrochloride (100 mg/kg body weight) and the pupils are dilated with 1% tropicamide. Three burns of krypton laser photocoagulation (100 μm spot size, 0.1 seconds duration, 150 mW) are delivered to each retina using the slit lamp delivery system of a Coherent Model 920 Photocoagulator and a hand held cover slide as a contact lens. Burns are performed in the 9, 12, and 3 o'clock positions of the posterior pole of the retina. Production of a bubble at the time of laser, which indicates rupture of Bruch's membrane, is an important factor in obtaining CNV, so only mice in which a bubble is produced for all three burns are included. […] After 14 days, the mice are killed with an overdose of pentobarbital sodium, and their eyes are rapidly removed and frozen in optimal cutting temperature embedding compound (OCT). […] Slides are rinsed with 0.05M TBS and incubated 2 hours at 37° C. with biotinylated lectin. […] After a 10 minute incubation in 0.05 M Tris buffer, pH 7.6, slides are developed in Histomark Red (Kirkegaard and Perry) to give a red reaction product, and mounted with Cytoseal (Stephens Scientific, Riverdale, N.J.). Some slides are counterstained with Contrast Blue (Kirkegaard and Perry).
For each lesion, area measurements are made for all sections on which some of the lesion appeared and added together to give the integrated area measurement. Values are averaged to give one experimental value per mouse. A 2-sample t-test for unequal variances is performed to compare the log mean integrated area between treatment and control mice.

CO[C@@H]1[C@H](N(C)C(=O)c2ccccc2)C[C@H]2O[C@]1(C)n1c3ccccc3c3c4c(c5c6ccccc6n2c5c31)C(=O)NC4 [NBS, N-benzoyl-staurosporine]
endothelial cell staining on and in the retinas by image analysis versus vehicle-treated mice ([1]; 60 mg/kg once a day): significantly less | clumps of neovascularization on the surface of the retina versus vehicle-treated control mice ([1]; 60 mg/kg twice a day, gavage): less than clumps in the retina of the vehicle-treated control mice | clumps of neovascularization on the surface of the retina versus vehicle-treated control mice ([1]; 300 mg/kg twice a day, gavage): less than clumps in the retina of the vehicle-treated control mice | endothelial cell staining on and in the retinas by image analysis versus vehicle-treated mice ([1]; 600 mg/kg once a day): significantly less | endothelial cell staining on the surface and within the retina compared to vehicle-treated mice ([1]; 600 mg/kg once a day for 5 days, gavage): dramatic decrease | total area of endothelial staining in the retina or appearance of retinal vessels compared to vehicle-treated mice [2]: no difference | toxicity to endothelial cells of mature vessels [2]: not toxic | difference in distance from the optic nerve to the vascular front between treated and control mice ([3]; at 7 and 10 days of age): statistically significant | extent of retinal vessels toward the periphery ([3]; at 7 days of age): only extend slightly more than halfway to the periphery | extent of superficial capillary bed ([3]; at 10 days of age): has not yet reached the edge of the retina | integrated area of lectin staining per lesion ([4]; 14 days after laser, vehicle 0.0695621±0.0073960 mm^2, p=0.004): 0.009018±0.001754 mm^2 | appearance of overlying retinal vessels in eyes of treated mice ([4]; two weeks after laser): appear normal | choroidal neovascularization at the site of each laser-induced rupture of Bruch's membrane ([4]; two weeks after laser): very little if any choroidal neovascularization

— US20030153551A1, “Method for treating ocular neovascular diseases” (priority 2002, published 2003)
